# In ChEMBL document CHEMBL1201862, “PubChem BioAssay data set” (2004):
# Calls of active or inactive are those of the source. For most assays here, no stated cut-off is given here; in the data, actives have a measured EC50 and inactives only a lower limit.
# Assays:
# [1] = inhibitors of SNCA 5'UTR-driven reporter translation, confirmation, H4 neuroglioma cells, luminescence (AID 1988); format: functional, cell-based
# [2] = inhibitors of firefly luciferase expression or activity, dose response, H4 neuroglioma cells, luminescence (AID 1990); format: functional, cell-based
# [3] = Luminescence Cell-Based Dose Response HTS to Identify Inhibitors of 5'UTR Stem-Loop Driven Prion Protein mRNA Translation in H4 Neuroglioblastoma Cells. [Related pubchem assays: 1827 (Project Summary), 1813 (Primary HTS)]; format: functional
# Protein RecA = target: T1, Protein RecA (Mycobacterium tuberculosis, UniProt P9WHJ3); test: Fluorescence Cell-Free Homogeneous Dose Retest to Identify Inhibitors of RecA-Intein Splicing Activity. [Related pubchem assays (depositor defined):AID2097, AID2223, AID489010, AID492950]; format: functional
# T1 sequence (P9WHJ3 whole entry): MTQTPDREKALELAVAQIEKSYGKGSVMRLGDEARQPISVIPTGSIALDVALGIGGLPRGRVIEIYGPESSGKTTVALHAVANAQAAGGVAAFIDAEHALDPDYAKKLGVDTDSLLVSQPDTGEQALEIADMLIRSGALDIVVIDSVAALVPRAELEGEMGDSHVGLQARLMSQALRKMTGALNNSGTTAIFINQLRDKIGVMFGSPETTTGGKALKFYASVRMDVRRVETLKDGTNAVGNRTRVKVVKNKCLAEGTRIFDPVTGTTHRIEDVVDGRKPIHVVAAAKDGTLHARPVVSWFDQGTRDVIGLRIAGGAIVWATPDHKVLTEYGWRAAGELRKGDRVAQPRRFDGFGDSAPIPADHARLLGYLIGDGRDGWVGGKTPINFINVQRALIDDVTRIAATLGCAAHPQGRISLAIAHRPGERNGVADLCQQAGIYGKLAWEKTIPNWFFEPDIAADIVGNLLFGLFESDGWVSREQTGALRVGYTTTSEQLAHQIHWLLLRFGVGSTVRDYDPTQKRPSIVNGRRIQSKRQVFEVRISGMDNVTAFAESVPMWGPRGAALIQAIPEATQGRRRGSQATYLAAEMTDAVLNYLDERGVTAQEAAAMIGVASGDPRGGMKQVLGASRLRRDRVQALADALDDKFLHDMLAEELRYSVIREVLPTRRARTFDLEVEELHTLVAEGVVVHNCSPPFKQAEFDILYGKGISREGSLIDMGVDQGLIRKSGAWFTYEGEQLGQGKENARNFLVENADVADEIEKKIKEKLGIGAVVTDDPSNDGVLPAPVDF
# [4] = target: T2, Replicative DNA helicase DnaB (Mycobacterium tuberculosis, UniProt P9WMR3); test: DnaB intein splicing inhibitors, dose response, biochemical, cell-free fluorescence (AID 449749); format: functional
# T2 sequence (P9WMR3 whole entry): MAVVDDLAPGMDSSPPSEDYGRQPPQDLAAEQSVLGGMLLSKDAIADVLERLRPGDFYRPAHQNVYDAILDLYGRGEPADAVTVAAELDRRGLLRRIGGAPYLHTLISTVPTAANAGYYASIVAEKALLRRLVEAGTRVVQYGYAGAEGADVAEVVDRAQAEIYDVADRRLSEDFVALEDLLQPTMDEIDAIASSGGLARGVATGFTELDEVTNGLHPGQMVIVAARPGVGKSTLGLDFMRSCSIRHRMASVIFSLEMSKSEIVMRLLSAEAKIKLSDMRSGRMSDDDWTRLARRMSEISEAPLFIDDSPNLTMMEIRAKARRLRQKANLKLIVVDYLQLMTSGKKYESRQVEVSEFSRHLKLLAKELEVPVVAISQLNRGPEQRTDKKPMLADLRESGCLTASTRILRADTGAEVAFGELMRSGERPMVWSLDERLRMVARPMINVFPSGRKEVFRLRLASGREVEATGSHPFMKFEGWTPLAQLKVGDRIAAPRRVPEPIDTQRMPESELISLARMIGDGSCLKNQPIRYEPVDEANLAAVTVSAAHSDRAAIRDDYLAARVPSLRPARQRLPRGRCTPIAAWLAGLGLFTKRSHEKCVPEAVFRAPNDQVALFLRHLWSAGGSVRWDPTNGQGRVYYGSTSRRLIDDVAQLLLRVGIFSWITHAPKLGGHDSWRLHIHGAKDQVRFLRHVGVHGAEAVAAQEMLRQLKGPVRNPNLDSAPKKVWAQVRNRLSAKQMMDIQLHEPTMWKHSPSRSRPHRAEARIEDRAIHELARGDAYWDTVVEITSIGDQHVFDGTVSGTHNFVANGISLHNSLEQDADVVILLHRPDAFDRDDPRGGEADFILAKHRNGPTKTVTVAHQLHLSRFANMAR
# [5] = HEp-2 cell cytotoxicity, dose response, cytotoxicity control for RSV inhibitor project, HTS (AID 2410); format: functional; conditions: human respiratory syncytial virus
# [6] = target: T3, Corticotropin-releasing factor receptor 2/Corticotropin-releasing factor-binding protein (Homo sapiens, UniProt P24387+Q13324); test: Dose Response confirmation of uHTS hits for small molecule antagonists of the CRF-binding protein and CRF-R2 receptor complex.; format: functional; conditions: read-out: IC50_Mean
# T3 sequence (Q13324 whole entry): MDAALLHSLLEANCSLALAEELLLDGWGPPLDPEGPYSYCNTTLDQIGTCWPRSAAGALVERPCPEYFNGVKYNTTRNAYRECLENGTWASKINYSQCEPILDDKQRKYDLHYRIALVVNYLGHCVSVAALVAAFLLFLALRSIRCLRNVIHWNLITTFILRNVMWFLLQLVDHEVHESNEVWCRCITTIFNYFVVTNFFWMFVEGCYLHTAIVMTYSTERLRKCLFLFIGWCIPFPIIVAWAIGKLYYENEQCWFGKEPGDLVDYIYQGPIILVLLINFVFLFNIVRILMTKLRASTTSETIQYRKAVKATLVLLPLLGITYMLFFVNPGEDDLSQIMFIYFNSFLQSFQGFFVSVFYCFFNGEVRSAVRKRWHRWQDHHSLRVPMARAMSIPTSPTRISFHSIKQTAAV
# T3 sequence (P24387 whole entry): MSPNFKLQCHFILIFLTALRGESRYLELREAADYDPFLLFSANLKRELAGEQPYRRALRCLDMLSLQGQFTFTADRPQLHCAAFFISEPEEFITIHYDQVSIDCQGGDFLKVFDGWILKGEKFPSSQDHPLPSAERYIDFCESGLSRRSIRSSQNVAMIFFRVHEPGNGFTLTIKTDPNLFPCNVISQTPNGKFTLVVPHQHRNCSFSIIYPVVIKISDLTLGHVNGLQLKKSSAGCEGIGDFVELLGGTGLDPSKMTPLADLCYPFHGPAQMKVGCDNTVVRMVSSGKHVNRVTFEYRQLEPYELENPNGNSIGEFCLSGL
# [7] = target: T3, Corticotropin-releasing factor receptor 2/Corticotropin-releasing factor-binding protein; test: activators of CRF receptor 2 with binding protein – uHTS hits, confirmation (AID 602473); format: functional; conditions: read-out: EC50_Mean
# Streptokinase A = target: T4, Streptokinase A (Streptococcus pyogenes serotype M1, UniProt P10520); test: S. pyogenes streptokinase expression inhibitors, potency, dose response, plasminogen activation absorbance, OD405 (AID 1914); format: functional, Streptococcus pyogenes M1 GAS;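 further: secreted streptokinase activity via plasminogen activation per viability signal from cell pellet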
# T4 sequence (P10520 whole entry): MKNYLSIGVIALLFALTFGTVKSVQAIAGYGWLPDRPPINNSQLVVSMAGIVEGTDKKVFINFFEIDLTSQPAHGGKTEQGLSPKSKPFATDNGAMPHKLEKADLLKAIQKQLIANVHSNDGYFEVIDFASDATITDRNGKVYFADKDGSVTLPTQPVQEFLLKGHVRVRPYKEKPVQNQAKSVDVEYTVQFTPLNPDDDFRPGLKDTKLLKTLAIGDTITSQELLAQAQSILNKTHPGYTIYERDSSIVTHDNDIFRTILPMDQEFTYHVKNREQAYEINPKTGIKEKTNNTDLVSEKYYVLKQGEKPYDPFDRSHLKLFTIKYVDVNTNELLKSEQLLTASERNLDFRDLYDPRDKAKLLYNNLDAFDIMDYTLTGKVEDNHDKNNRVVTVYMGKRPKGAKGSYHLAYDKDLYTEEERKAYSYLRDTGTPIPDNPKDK
# Large T antigen = Large T antigen (Simian virus 40, UniProt P03070); format: functional, Betapolyomavirus macacae;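 further: Confirmatory-stage PubChem screen for compounds that inhibit SV40 T antigen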
# Large T antigen, sequence (P03070 whole entry): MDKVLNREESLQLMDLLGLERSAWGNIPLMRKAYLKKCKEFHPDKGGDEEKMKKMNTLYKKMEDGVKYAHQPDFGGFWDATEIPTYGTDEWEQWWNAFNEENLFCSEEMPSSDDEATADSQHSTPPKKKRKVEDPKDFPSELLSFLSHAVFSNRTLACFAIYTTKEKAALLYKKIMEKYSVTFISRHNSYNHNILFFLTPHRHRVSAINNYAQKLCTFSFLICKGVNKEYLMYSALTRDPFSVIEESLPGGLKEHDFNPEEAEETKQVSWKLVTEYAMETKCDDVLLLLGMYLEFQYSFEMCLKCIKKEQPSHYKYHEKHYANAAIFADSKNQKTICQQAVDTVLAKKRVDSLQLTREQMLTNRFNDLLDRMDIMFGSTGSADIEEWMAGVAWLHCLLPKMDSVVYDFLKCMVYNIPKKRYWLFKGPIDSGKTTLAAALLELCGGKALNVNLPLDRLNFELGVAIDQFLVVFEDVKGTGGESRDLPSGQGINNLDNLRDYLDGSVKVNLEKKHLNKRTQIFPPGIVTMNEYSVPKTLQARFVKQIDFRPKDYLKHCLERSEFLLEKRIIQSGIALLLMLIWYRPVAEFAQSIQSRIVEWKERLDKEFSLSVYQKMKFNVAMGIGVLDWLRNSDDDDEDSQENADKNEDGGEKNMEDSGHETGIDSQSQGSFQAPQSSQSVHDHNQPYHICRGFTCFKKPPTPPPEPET
# Streptococcus = test: Group A Streptococcus viability loss, dose response, counter-screen for streptokinase expression inhibitor project, luminescence, BacTiterGlo (AID 1915); format: functional, organism-based;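 further: potency for reduction of bacterial viability or growth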
# [8] = system: Streptococcus sp. 'group A'; test: growth inhibition of control SK(-) GAS strain, dose response, counter-screen for streptokinase expression inhibitor project, luminescence, kanamycin, BacTiterGlo, confirmation (AID 1900); format: functional, organism-based
structure (smiles),measurement,setting,value
CCOC(=O)c1c(C)n[nH]c1NCc1ccccc1,EC50,[1],> 120 µM (not active)
same,EC50,[2],26 µM (active)
same,EC50,[3],> 120 µM (not active)
Cc1cccc(NCCC#N)c1,EC50,[1],> 120 µM (not active)
same,EC50,[2],> 120 µM (not active)
same,EC50,[3],> 120 µM (not active)
COc1ccc(N=C(S)NC(NC(=O)CCl)C(Cl)(Cl)Cl)c([N+](=O)[O-])c1 (configuration not stated),EC50,Protein RecA,3.31 µM (active)
same,AC50,[4],28.5 µM (active)
Cc1nn(-c2ccccc2)c2c1C1(C(=O)N(C(C)C)c3ccccc31)C(C#N)=C(N)O2 (configuration not stated),EC50,Protein RecA,2.88 µM (active)
same,AC50,[4],4.5 µM (active)
COc1cc2c(cc1OC)C1(Nc3c-2c(Cc2ccccc2)nn3-c2ccccc2)C(=O)Nc2ccccc21 (configuration not stated),CC50,[5],> 50 µM (active)
same,EC50,Protein RecA,> 380 µM (inactive)
same,AC50,[4],> 380 µM (inactive)
Cc1ccn2cc(CSc3ccccc3N)nc2c1,IC50,[6],> 47.1 µM (inactive)
same,EC50,[7],> 53 µM (inactive)
Cc1ccc(S(=O)(=O)N[C@@H](CCCCN)C(=O)CCl)cc1,EC50,Protein RecA,12.6 µM (active)
same,AC50,[4],> 120 µM (inactive)
Cc1nc2c(c(N3CCOCC3)n1)OCC(=O)N2,EC50,[1],20.7 µM (active)
same,EC50,[2],42.6 µM (active)
same,EC50,[3],> 120 µM (not active)
Cc1ccc(NC(=O)CSc2ncc(-c3ccccc3)n2C(=O)c2ccccc2)cc1,EC50,Protein RecA,1.77 µM (active)
same,AC50,[4],2.56 µM (active)
C=C(C)CN1CC[C@]23c4c5ccc(O)c4O[C@H]2c2[nH]c4ccccc4c2C[C@@]3(O)C1C5,EC50,[1],13.3 µM (active)
same,EC50,[2],13.7 µM (active)
same,EC50,[3],109 µM (active)
COc1ccc(Br)cc1S(=O)(=O)Nc1nnc[nH]1,EC50,Streptokinase A,> 150 µM (not active)
CN(C)S(=O)(=O)c1ccc(Cl)c(-c2nnc3n2CCCCC3)c1,EC50,[1],> 120 µM (not active)
same,EC50,[2],> 120 µM (not active)
same,EC50,[3],> 120 µM (not active)
O=C(Nc1ccc(O)cc1)/C(=C/c1ccco1)NC(=O)c1ccccc1,IC50,Large T antigen,11 µM (active)
Cc1cc(C)nc(SCc2cc(=O)c(OC(=O)c3ccc(S(=O)(=O)N4CCCC4)cc3)co2)n1,IC50,Large T antigen,37.3 µM (active)
CCCc1nn(C)c2c1C(c1ccncc1)C(C#N)=C(N)O2 (configuration not stated),EC50,Protein RecA,3.79 µM (active)
same,AC50,[4],9.7 µM (active)
O=C(CNC(=O)C1CCCCC1)Nc1ccc(F)c(Cl)c1,IC50,[6],> 47.1 µM (inactive)
same,EC50,[7],> 53 µM (inactive)
CCN(CC)S(=O)(=O)c1cc(OC)c(C)cc1C,IC50,[6],> 47.1 µM (inactive)
same,EC50,[7],> 53 µM (inactive)
COc1cccc(-c2cc(C(F)(F)F)nc(N3CCC(C)CC3)n2)c1,EC50,Streptococcus,13.2 µM (active)
same,EC50,[8],5.93 µM (active)
same,EC50,Streptokinase A,97.6 µM (inconclusive)
NNc1nnc(S)n1N,EC50,Protein RecA,86.4 µM (active)
same,AC50,[4],> 380 µM (inactive)
Cc1ccc(NC(=O)c2ccc(S(=O)(=O)N3CCC(C)CC3)cc2)cc1,EC50,[1],12 µM (active)
same,EC50,[2],> 120 µM (not active)
same,EC50,[3],38.7 µM (active)
CCOC(=O)c1c(NC(=O)CSc2nnc(-c3c[nH]c4ccccc34)n2CCOC)sc2c1CCCC2,EC50,Protein RecA,> 380 µM (inactive)
same,AC50,[4],20.2 µM (active)
Cc1ccc(S(=O)(=O)N2CCOCC2)cc1C(=O)NC1CCN(Cc2ccccc2)CC1,IC50,[6],> 47.1 µM (inactive)
same,EC50,[7],> 53 µM (inactive)
O=C(Nc1ccn(Cc2c(F)c(F)cc(F)c2F)n1)c1ccc(COc2ccc(Cl)cc2Cl)o1,EC50,Streptococcus,> 150 µM (not active)
same,EC50,[8],36.3 µM (active)
same,EC50,Streptokinase A,> 150 µM (not active)
O=C(Cc1csc(NC(=O)Nc2cccc(Cl)c2)n1)NCc1ccccn1,EC50,Streptococcus,> 150 µM (not active)
same,EC50,[8],7.28 µM (active)
same,EC50,Streptokinase A,> 150 µM (not active)
CN(C)c1ccc(NC(=O)CN2CCN(c3ccc(F)cc3)CC2)cc1,IC50,Large T antigen,5.83 µM (active)
CC(/C=C1\SC(=S)N(NC(=O)c2cccc(O)c2)C1=O)=C\c1ccccc1,EC50,Protein RecA,25.2 µM (active)
same,AC50,[4],15 µM (active)
COc1cccc(-n2c(=O)c3ccccc3n3c(S)nnc23)c1,IC50,Large T antigen,19.1 µM (active)
Nc1c(C(=O)NCc2ccc3c(c2)OCO3)nnn1CC(=O)Nc1ccc(Br)cc1,EC50,[1],18.3 µM (active)
same,EC50,[2],> 120 µM (not active)
same,EC50,[3],> 120 µM (not active)
CCCOc1ccc(Cc2c(Cl)nc(SC)nc2OC)cc1,EC50,Streptococcus,> 150 µM (not active)
same,EC50,Streptokinase A,57.2 µM (active)
CCOC(=O)c1c(C)c(C(=O)Nc2ccc(N(C)C)cc2)c(C)n1CC,IC50,Large T antigen,15.1 µM (active)
COC(=O)c1sc(-c2cccs2)cc1NC(=O)/C=C/C(=O)O,EC50,Protein RecA,15.2 µM (active)
same,AC50,[4],82.9 µM (active)
